How the values were obtained:
[1] = biological target: T1, AdipoR1 (Mus musculus, UniProt Q91VH1); assay: Measurement of AMPK phosphorylation ability (Assay 1), differentiated C2C12 cells, Western blotting; format: cell-based; conditions: 10 μM, 10 minutes
T1 construct: C2C12 cells (ATCC; CRL-1772, medium; host or cells: differentiated C2C12
T1 sequence (Q91VH1 1-375): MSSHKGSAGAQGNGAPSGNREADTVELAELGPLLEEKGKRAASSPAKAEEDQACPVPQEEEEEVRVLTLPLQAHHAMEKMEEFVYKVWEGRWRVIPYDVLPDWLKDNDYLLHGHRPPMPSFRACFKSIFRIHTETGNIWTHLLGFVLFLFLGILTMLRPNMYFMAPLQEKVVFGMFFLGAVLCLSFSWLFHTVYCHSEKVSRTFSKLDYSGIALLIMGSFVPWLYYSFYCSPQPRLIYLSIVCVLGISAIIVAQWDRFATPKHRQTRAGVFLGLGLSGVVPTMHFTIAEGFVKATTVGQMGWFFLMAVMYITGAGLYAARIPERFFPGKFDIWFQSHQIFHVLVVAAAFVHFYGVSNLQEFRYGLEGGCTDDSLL
Method: The AMPK phosphorylation ability of the respective compounds according to the present invention was measured by using differentiated C2C12 cells or HEK 293T cells.
C2C12 cells (ATCC; CRL-1772, medium; DMEM, 10% FBS) were cultured in a 12- or 24-well plate until they reached 100% confluency (37° C., 5% CO2).
The medium was changed to 2.5% Horse Serum (HS) and differentiation was started. The medium (DMEM, 2.5% HS) was replaced every three days.
After starvation, a test compound listed in Table 12 (concentration: 10 μM) was added thereto, and after 10 minutes, the medium was discarded and the plate was frozen with liquid nitrogen.
To the 12- or 24-well cell plate which had been frozen was added 100 or 150 μL of Cell lysis buffer pH 7.4 (50 mM HEPES (pH 7.4), 2 mM sodium orthovanadate, 10 mM sodium pyrophosphate, 10 mM NaF, 2 mM EDTA, 2 mM EGTA, 0.1% (v/v) NP-40, 0.2 mM PMSF), and the cells were scraped off with a cell scraper, suspended and transferred into a micro centrifugal tube. And then, the cells were ultrasonically crushed (1 second×3 times) with a sonicator. Centrifugation was performed at 4° C. at 15,000 rpm for 15 minutes, and the supernatant was recovered into a new tube.
To 100 μL of the supernatant was added 25 μL of 5× sample buffer (280 mM Tris-HCl (pH 6.9), 40% glycerol, 10% (3-mercaptoethanol, 13% SDS, a small amount of bromophenol blue) and mixed together. The rest of the supernatant was used for protein quantification, and the protein concentrations were uniformed by adding 1× sample buffer depending on the concentration of each sample.
An electrophoresis chamber was filled with 1× SDS buffer (25 mM Tris-HCl, 250 mM glycine, 0.1% SDS), and the sample was applied to a well of polyacrylamide gel. Electrophoresis was performed until the bromophenol blue in the sample reached to the bottom of the gel.
A filter paper was soaked in 1× Transfer buffer sufficiently, above which the PVDF membrane and the gel after electrophoresis were stacked in this order, and thereabove a filter paper which had been soaked in 1× Transfer buffer sufficiently was further stacked, from which an air was removed and the resultant was set in semi-dry type transfer apparatus and transferred (7V, 35 minutes).
An unnecessary portion of the blotted membrane was cutoff, and the rest was immediately soaked in blocking buffer (5% skimmed milk in Rinse buffer), and shaken at room temperature at 40 rpm for 3 hours.
After blocking, the membrane was transferred into Rinse buffer, and washed at room temperature for 10 minutes while shaking. The membrane was soaked in a primary antibody solution (AMPK alpha Antibody (Cell signaling; #2532) 1/1,000 in Rinse buffer, Phospho-AMPK alpha (Thr172) (40H9) antibody (Cell signaling; #2535) 1/1,000 in Rinse buffer), and shaken at 4° C. at 40 rpm overnight.
The membrane was soaked in a secondary antibody solution (goat anti-rabbit IgG-HRP Antibody (Santa Cruz; sc-2030) 1/2,000 in Rinse buffer), and shaken at room temperature at 40 rpm for 1 hour.
After the membrane was washed for 45 minutes in the same way as after the primary antibody reaction, the membrane was soaked in a chemiluminescent reaction solution (ECL Western Blotting Detection Reagents, GE Healthcare) for about 1 minute. An excess of the reaction solution was removed, and then the membranes were arranged on a transparent film and sandwiched with it, with which an X-ray film was exposed in a darkroom (for about several seconds to 60 seconds) to develop the film.
The X-ray film was scanned to take the image, for which the band was measured by using the image analysis software “Image J” to determine the respective amounts of pAMPK and AMPK.

[2] = tested on: HF diet-induced obese mice; assay: Oral glucose tolerance test and insulin tolerance in HF diet-induced obese mice; format: in vivo; conditions: mice, FIG. 7
Method: The original Adipor1^+/−/Adipor2^+/− mice (C57BL/6 and 129/Sv mixed background)^a were backcrossed with C57B1/6 mice more than seven times. All experiments in this study were conducted on male littermates.
(§1) Mice were 6-10 week of age at the time of the experiment. They were housed in cages and maintained on a 12 hr light-dark cycle.
(§2) Plasma glucose levels were determined by using a glucose B-test (Wako Pure Chemical Industries). Plasma insulin was measured with an insulin immunoassay (Shibayagi). Plasma NEFAs (Wako Pure Chemical Industries) were assayed by enzymatic methods.
(§3) The oral glucose tolerance test (OGTT) and insulin tolerance test (ITT) were conducted as previously described^a,b with slight modifications. The areas of the glucose and insulin curves were calculated by multiplying the cumulative mean height of the glucose values (1 mg/ml=1 cm) and insulin values (1 ng/ml=1 cm), respectively, by time (60 min=1 cm)^c,a. The insulin resistance index was calculated from the product of the areas of glucose and insulin×10^−2 in the glucose tolerance test. The results are expressed as the percentage of the value respect to control littermates.

[3] = tested on: AdipoR1; assay: Measurement of AMPK phosphorylation ability (Assay 2), C2C12 cells with unrelated or AdipoR1 siRNA; format: cell-based, Mouse
Method: C2C12 cells (ATCC; CRL-1772, medium; DMEM, 10% Fetal Bovine Serum (FBS)) were cultured in a 12- or 24-well plate until they reached 100% confluency (37° C., 5% CO2). The medium was changed to DMEM, 2.5% Horse Serum (HS) and differentiation was started. The medium (DMEM, 2.5% HS) was replaced two days after the start of differentiation. The medium (DMEM, 2.5% HS) was further replaced two days after that.
On the next day following the replacement of the medium, first, 1 μL of Lipofectamine RNAiMAX and 50 μL of OPTI-MEM were mixed, and then 5 μM siRNA (sense siRNA sequence: […]tt (SEQ ID NO: 1)) and 50 μL of OPTI-MEM were mixed and the resultants were left to stand at room temperature for 5 minutes. And then, the 1 μL Lipofectamine RNAiMAX/50 μL OPTI-MEM and the 5 μM siRNA/50 μL OPTI-MEM were mixed, and the resultant was left to stand at room temperature for 10 minutes, which was added to the cells.
After 5 minutes, the medium (DMEM, 2.5 HS) was replaced, and after starvation on the next day, a test compound listed in Table 12 was added thereto. After 10 minutes, the medium was discarded and the plate was frozen with liquid nitrogen.
The respective amounts of pAMPK and AMPK were determined in the same way as in the above Assay 1.

[4] = tested on: Lepr−/− (db/db) mice; assay: Anti-diabetic effects in db/db mice; format: in vivo; conditions: intraperitoneal (IP) injection
Method: as §1
Male Lepr^−/− (aged 6-10 week) were purchased from Jackson Laboratory. When the mice in the same genotype received different treatments, they were randomly assigned to treatment groups.
as §2, §3

In the case of COc1ccc(CN2CCN(C(=O)CCNC(=O)c3ccc(C(C)(C)C)cc3)CC2)cc1 [Compound 74, 4-tert-butyl-N-(3-{4-[(4-methoxyphenyl)methyl]piperazin-1-yl}-3-oxopropyl) benzamide], the “pAMPK/AMPK (%)” value [1] is reported as 86.43%, the “glucose intolerance and insulin resistance” value [2] is reported as “could improve glucose intolerance as well as insulin resistance” and the “pAMPK/AMPK (ratio) siRNA, AdipoR1 siRNA” value [3] is reported as 2.07 ratio. For the same molecule, the “pAMPK/AMPK (ratio) siRNA, unrelated siRNA” value [3] was 3.70 ratio.

For O=C(NC1CCN(Cc2ccccc2)CC1)c1ccc(Cl)c(Cl)c1 [No. 550212], the “pAMPK/AMPK (%)” value [1] was 80.04%, the “pAMPK/AMPK (ratio) siRNA, AdipoR1 siRNA” value [3] was 2.14 ratio and the “pAMPK/AMPK (ratio) siRNA, unrelated siRNA” value [3] was 1.91 ratio.

B1: adiponectin: antidiabetic and antiatherogenic adipokine; mouse full-length adiponectin was generated as previously described (protein, UniProt Q60994 1-247, looked up)
chain: MLLLQALLFLLILPSHAEDDVTTTEELAPALVPPPKGTCAGWMAGIPGHPGHNGTPGRDGRDGTPGEKGEKGDAGLLGPKGETGDVGMTGAEGPRGFPGTPGRKGEPGEAAYVYRSAFSVGLETRVTVPNVPIRFTKIFYNQQNHYDGSTGKFYCNIPGLYYFSYHITVYMKDVKVSLFKKDKAVLFTYDQYQEKNVDQASGSVLLHLEVGDQVWLQVYGDGDHNGLYADNVNDSTFTGFLLYHDTN
modifications: full-length
notes: antidiabetic and antiatherogenic adipokine; mouse full-length adiponectin was generated as previously described
B1 was tested, and the plasma glucose level [4] was “decreased plasma glucose level”.
